How the values were obtained:
[1] = tested on: Rattus norvegicus; assay: Mortality caused by the compound in rats after administration at 760 uM/kg for 4 days; format: functional
[2] = tested on: Rattus norvegicus; assay: Body weight change after once daily administration at 760 uM/kg for 4 days in rats was determined; format: functional
[3] = tested on: Mus musculus; assay: Antiinflammatory activity, administered ip at 150 uM/kg dose was determined against carrageenan-induced mice paw edema model; format: functional; conditions: at 150 µmol/kg
[4] = tested on: Rattus norvegicus; assay: Ulcerogenic activity administered once daily at 760 uM/kg for 4 days was determined as no of animals showing perforating ulcers; format: functional
[5] = tested on: Rattus norvegicus; assay: Mortality caused by the compound in rats after administration at 1200 uM/kg for 4 days; format: functional
[6] = tested on: Rattus norvegicus; assay: Ulcerogenic activity administered once daily at 1200 uM/kg for 4 days was determined as no of animals showing perforating ulcers; format: functional
[7] = tested on: Rattus norvegicus; assay: Body weight change after once daily administration for 4 days in rats was determined; format: functional
[8] = tested on: Rattus norvegicus; assay: Hypolipidemic action at 250 uM/kg was determined as reduction in total cholesterol in rat plasma; format: functional
[9] = tested on: Rattus norvegicus; assay: Ulcerogenic activity administered once daily at 1600 uM/kg for 4 days was determined as no of animals showing perforating ulcers; format: functional
[10] = species: Rattus norvegicus; assay: In vitro ability to inhibit the peroxidation of rat hepatic microsomal lipids; format: functional; conditions: Liver
[11] = tested on: Rattus norvegicus; assay: Hypolipidemic action at 250 uM/kg was determined as reduction in low density lipoprotein in rat plasma; format: functional
[12] = tested on: Rattus norvegicus; assay: Mortality caused by the compound in rats after administration at 1600 uM/kg for 4 days; format: functional
[13] = species: Rattus norvegicus; assay: In vitro ability to inhibit the peroxidation of rat hepatic microsomal lipids at 1 mM concentration; format: functional; conditions: Liver
[14] = tested on: Rattus norvegicus; assay: Hypolipidemic action at 250 uM/kg was determined as reduction in triglycerides in rat plasma; format: functional
[15] = tested on: Rattus norvegicus; assay: Body weight change after once daily administration at 84 uM/kg for 4 days in rats was determined; format: functional
[16] = tested on: Rattus norvegicus; assay: Mortality caused by the compound in rats after administration at 84 uM/kg for 4 days; format: functional
[17] = tested on: Rattus norvegicus; assay: Hypolipidemic action at 500 uM/kg was determined as reduction in triglycerides in rat plasma; format: functional
[18] = tested on: Rattus norvegicus; assay: Hypolipidemic action at 500 uM/kg was determined as reduction in total cholesterol in rat plasma
[19] = tested on: Rattus norvegicus; assay: Hypolipidemic action at 500 uM/kg was determined as reduction in low density lipoprotein in rat plasma; format: functional
[20] = tested on: Rattus norvegicus; assay: Ulcerogenic activity administered once daily at 84 uM/kg for 4 days was determined as no of animals showing perforating ulcers; format: functional
[21] = tested on: Rattus norvegicus; assay: Ulcerogenic activity administered once daily at 240 uM/kg for 4 days was determined as no of animals showing perforating ulcers; format: functional
[22] = tested on: Rattus norvegicus; assay: Body weight change after once daily administration at 200 uM/kg for 4 days in rats was determined; format: functional
[23] = tested on: Rattus norvegicus; assay: Mortality caused by the compound in rats after administration at 200 uM/kg for 4 days; format: functional
[24] = tested on: Rattus norvegicus; assay: Ulcerogenic activity administered once daily at 200 uM/kg for 4 days was determined as no of animals showing perforating ulcers; format: functional
[25] = tested on: Rattus norvegicus; assay: Ulcerogenic activity administered once daily for 4 days at 84 uM/kg was determined as no of animals showing perforating ulcers; format: functional
[26] = tested on: Rattus norvegicus; assay: Body weight change after once daily administration for 4 days at 84 uM/kg in rats was determined; format: functional
[27] = tested on: Rattus norvegicus; assay: Ulcerogenic activity administered once daily at 1350 uM/kg for 4 days was determined as no of animals showing perforating ulcers; format: functional
[28] = tested on: Rattus norvegicus; assay: Mortality caused by the compound in rats after administration at 1350 uM/kg for 4 days; format: functional
[29] = tested on: Rattus norvegicus; assay: Body weight change after once daily administration at 240 uM/kg for 4 days in rats was determined; format: functional
[30] = tested on: Rattus norvegicus; assay: Mortality caused by the compound in rats after administration at 240 uM/kg for 4 days; format: functional
[31] = tested on: Rattus norvegicus; assay: Hypolipidemic action at 300 uM/kg was determined as reduction in triglycerides in rat plasma; format: functional
[32] = tested on: Rattus norvegicus; assay: Hypolipidemic action at 300 uM/kg was determined as reduction in total cholesterol in rat plasma; format: functional
[33] = tested on: Rattus norvegicus; assay: Body weight change after once daily administration at 1600 uM/kg for 4 days in rats was determined; format: functional
[34] = tested on: Rattus norvegicus; assay: Hypolipidemic action at 300 uM/kg was determined as reduction in low density lipoprotein in rat plasma; format: functional

| Structure (SMILES) | Edema inhibition [3] [%] | Paw weight increase [3] [%] | Decrease [17] [%] | Decrease [18] [%] | Decrease [19] [%] | also measured |
| --- | --- | --- | --- | --- | --- | --- |
| Cc1c(Cl)cccc1Nc1ccccc1C(=O)O [TOLFENAMIC ACID] | 24 | 27.6 | – | – | – | Mortality [1]: 50%; Body weight change [2]: -5.3 g (100g of body weight)-1; Ulcerogenic activity [4]: 50% |
| CCOC(=O)[C@@H](N)CS.O=C(O)c1ccccc1Nc1cccc(C(F)(F)F)c1 | 9 | 61.9 | – | – | – | – |
| CCOC(=O)[C@@H](N)CS.O=C([O-])Cc1ccccc1Nc1c(Cl)cccc1Cl.[Na+] | 27.7 | 28.2 | – | – | – | – |
| CCOC(=O)[C@@H](N)CS | 24.9 | 29.2 | – | – | – | – |
| O=C(O)c1ccccc1Nc1cccc(C(F)(F)F)c1 [FLUFENAMIC ACID] | 19 | 55.4 | – | – | – | Mortality [5]: 50%; Ulcerogenic activity [6]: 50%; Body weight change [7]: -9.2 g (100g of body weight)-1 |
| CCOC(=O)[C@H](CS)NC(=O)C(C)c1ccc(CC(C)C)cc1 (stereo not given in full) | 61.2 | 19.1 | – | – | – | Decrease [8]: 48.1%; Ulcerogenic activity [9]: 0%; IC50 [10]: 38 µM; Decrease [11]: 68.7%; Mortality [12]: 0%; inhibition [13]: 100%; Decrease [14]: 27.5%; Body weight change [7]: 1 g (100g of body weight)-1 |
| COc1ccc2c(c1)c(CC(=O)O)c(C)n2C(=O)c1ccc(Cl)cc1 [INDOMETHACIN] | 41.6 | 22.5 | 78.6 | 74.4 | 72.2 | Body weight change [15]: -13 g (100g of body weight)-1; Mortality [16]: 50%; Ulcerogenic activity [20]: 80% |
| O=C([O-])Cc1ccccc1Nc1c(Cl)cccc1Cl.[Na+] [DICLOFENAC SODIUM] | 37.1 | 24.5 | 96.1 | 87.4 | 86.3 | Ulcerogenic activity [21]: 75% |
| CCOC(=O)[C@H](CS)NC(=O)C(C)c1cccc(C(=O)c2ccccc2)c1 (stereo not given in full) | 29 | 48 | – | – | – | Body weight change [22]: 0.3 g (100g of body weight)-1; Mortality [23]: 0%; IC50 [10]: 650 µM; Ulcerogenic activity [24]: 0%; inhibition [13]: 100% |
| CC(C(=O)O)c1cccc(C(=O)c2ccccc2)c1 (stereo not given) [KETOPROFEN] | – | 35.9 | – | – | – | Body weight change [22]: -18.9 g (100g of body weight)-1; Mortality [23]: 50%; Ulcerogenic activity [24]: 83% |
| CCOC(=O)[C@H](CS)NC(=O)Cc1c(C)n(C(=O)c2ccc(Cl)cc2)c2ccc(OC)cc12 | 63.3 | 14.1 | 19.8 | 37 | 60.5 | Ulcerogenic activity [25]: 0%; Mortality [16]: 0%; IC50 [10]: 51 µM; inhibition [13]: 100%; Body weight change [26]: 3.4 g (100g of body weight)-1 |
| COc1ccc2cc([C@H](C)C(=O)O)ccc2c1 [NAPROXEN] | 11 | 50.4 | 25.5 | 53 | 43.5 | Ulcerogenic activity [27]: 100%; Mortality [28]: 50%; Body weight change [7]: -15.8 g (100g of body weight)-1 |
| CCOC(=O)[C@H](CS)NC(=O)Cc1ccccc1Nc1c(Cl)cccc1Cl | 59.3 | 11.8 | 31.6 | 54.7 | 92.6 | IC50 [10]: 27 µM; Body weight change [29]: 3.1 g (100g of body weight)-1; inhibition [13]: 100%; Ulcerogenic activity [21]: 0%; Mortality [30]: 0% |
| CCOC(=O)[C@@H](N)CS.COc1ccc2cc(C(C)C(=O)O)ccc2c1 (stereo not given) | 38.1 | 30.1 | – | – | – | – |
| CCOC(=O)[C@@H](N)CS.COc1ccc2c(c1)c(CC(=O)O)c(C)n2C(=O)c1ccc(Cl)cc1 | 32.8 | 25.8 | – | – | – | – |
| CC(C(=O)O)c1cccc(C(=O)c2ccccc2)c1.CCOC(=O)[C@@H](N)CS (stereo not given) | 39 | 41.6 | – | – | – | – |
| CCOC(=O)[C@@H](N)CS.Cc1c(Cl)cccc1Nc1ccccc1C(=O)O | 25.9 | 25.5 | – | – | – | – |
| CC(C)Cc1ccc(C(C)C(=O)O)cc1 (stereo not given) [IBUPROFEN] | 35.6 | 31.7 | – | – | – | Decrease [31]: 41.6%; Ulcerogenic activity [9]: 88%; Decrease [32]: 38.2%; Mortality [12]: 50%; Body weight change [33]: -12.7 g (100g of body weight)-1; Decrease [34]: 31.6% |
| CCOC(=O)[C@H](CS)NC(=O)C(C)c1ccc2cc(OC)ccc2c1 (stereo not given in full) | 37.1 | 35.6 | 29.6 | 33.8 | 46.8 | Ulcerogenic activity [27]: 0%; IC50 [10]: 28 µM; inhibition [13]: 100%; Mortality [28]: 0%; Body weight change [7]: 9.2 g (100g of body weight)-1 |

Source: ChEMBL document CHEMBL1147486 (Bioorg Med Chem Lett, 2004)
